The results in this text go back to US20150197492A1, “NOVEL INDENO[1,2-c]QUINOLIN-11-ONE DERIVATIVES, PREPARATION METHOD AND APPLICATION THEREOF” (National Defense Medical Center, priority 2014, published 2015).

One data set relates to human PC-3 cells. Kind of data set: Sulforhodamine B (SRB) assay, cytotoxicity against PC-3 cells. Format: cell-based. Particulars: SRB assay, PC-3 cells. The procedure: Add 5% Fetal Bovine Serum (FBS) to 96-well plate and fix the cells with 10% TCA after 24 hours of incubation and add the compound (T0). Add DMSO and culture for another 48 hours and the cells are fixed in 0.4% (W/V), 10% TCA and SRB, and […]. Excess SRB is washed off by 1% acetic acid and cells stained with SRB are dissolved in 10 mmol/L Trizma base. The absorbance is measured at 515 nm. The treatment time is 0 (T0), control growth (C) and the increase of the compound (Tx) in the cells are shown below and are used to calculate the increase of the concentration of the compound in percentage. Growth inhibition (GI %) is calculated using the following formula 100−[(TX−T0)/(C−T0)]×100. The 50% growth inhibition concentration (IC50) is used to confirm the concentration of compound and thus results in 50% reduction of the treated cells which control the amount of total protein.
This part of experimental results are SRB assays measuring cytotoxicity of the 26 synthesized compounds against human PC-3 cells and are summarized in Table 1 and 2.
(In general: Sulforhodamine B stains cellular protein and so reports cell mass.)

A short description of another data set: Solubility in DMSO. Format: physicochemical. Particulars: order SJ-2<SJ-24<SJ-3<SJ-11. From the text: The solubility of the four compounds in DMSO is poor, SJ-2<SJ-24<SJ-3<SJ-11, and therefore it is estimated and this is the reason why the three compounds which have previously proven to be effective against PC-3 cell line by SRB assays are ineffective in this experiment.

The term melting point denotes the temperature, or range, at which the solid turns liquid.

With `O=C1c2cc(Cl)ccc2-c2c(N3CCCC3)nc3ccccc3c21` [SJ-4, 9-Chloro-6-(pyrrolidin-1-yl)-11H-indeno[1,2-c]quinolin-11-one], the melting point is 149 to 150 °C. Also, in the data set on human PC-3 cells, the “Toxicity (%)” value was found to be 47.2% and the “GI % (10 μM)” value came to 100%.
For the compound `O=C1c2cc(Cl)ccc2-c2c(N3CCCCC3)nc3ccccc3c21` [SJ-5, 9-Chloro-6-(piperidin-1-yl)-11H-indeno[1,2-c]quinolin-11-one], the melting point is 191 to 192 °C. Further, in the data set on human PC-3 cells, the “Toxicity (%)” value was 22.2% and the “GI % (10 μM)” value was found to be 100%.
The corresponding values for `O=C1c2cc(Cl)ccc2-c2c(N3CCCCCC3)nc3ccccc3c21` [SJ-7, 6-(Azepan-1-yl)-9-chloro-11H-indeno[1,2-c]quinolin-11-one] are 146 to 147 °C, 41.7% and 100%.
Compound `CCN1CCN(c2nc3ccccc3c3c2-c2ccc(Cl)cc2C3=O)CC1` [SJ-13, 9-Chloro-6-(4-ethylpiperazin-1-yl)-11H-indeno[1,2-c]quinolin-11-one] came in with a melting point of 182 to 184 °C. For the same compound, in the data set with human PC-3 cells, the “Toxicity (%)” value is 29.7% and the “GI % (10 μM)” value is listed as 100%.
`O=C1c2cc(Cl)ccc2-c2c(N3CCC(N4CCCCC4)CC3)nc3ccccc3c21` [SJ-15, 9-Chloro-6-(4-(piperidin-1-yl)piperidin-1-yl)-11H-indeno[1,2-c]quinolin-11-one]: the melting point lay within 174 to 175 °C. For the same compound, in the data set on human PC-3 cells, the “Toxicity (%)” value was 0% and the “GI % (10 μM)” value is reported as 98.83%.
Take `O=C1c2cc(Cl)ccc2-c2c(N3CCN(Cc4ccccc4)CC3)nc3ccccc3c21` [SJ-17, 6-(4-Benzylpiperazin-1-yl)-9-chloro-11H-indeno[1,2-c]quinolin-11-one]: the melting point lay within 178 to 180 °C. In addition, in the data set on human PC-3 cells, the “Toxicity (%)” value is reported as 0% and the “GI % (10 μM)” value turned out to be 73.53%.
`O=C1c2cc(Cl)ccc2-c2c(N3CCN(c4ccccc4F)CC3)nc3ccccc3c21` [SJ-18, 9-Chloro-6-(4-(2-fluorophenyl)piperazin-1-yl)-11H-indeno[1,2-c]quinolin-11-one]: the melting point was 182 to 183 °C. In addition, in the data set on human PC-3 cells, the “Toxicity (%)” value was found to be 0% and the “GI % (10 μM)” value is reported as 85.48%.
Compound `COc1ccccc1N1CCN(c2nc3ccccc3c3c2-c2ccc(Cl)cc2C3=O)CC1` [SJ-19, 9-Chloro-6-(4-(2-methoxyphenyl)piperazin-1-yl)-11H-indeno[1,2-c]quinolin-11-one] gave a melting point of 129 to 131 °C. Further, in the data set on human PC-3 cells, the “Toxicity (%)” value is 8.5% and the “GI % (10 μM)” value is 100%.
`CN1CCC(N2CCN(c3nc4ccccc4c4c3-c3ccc(Cl)cc3C4=O)CC2)CC1` [SJ-21, 9-Chloro-6-(4-(1-methylpiperidin-4-yl)piperazin-1-yl)-11H-inden o[1,2-c]quinolin-11-one] came in with a melting point of 208 to 209 °C. For the same compound, in the data set on human PC-3 cells, the “Toxicity (%)” value was 66% and the “GI % (10 μM)” value was determined as 100%.
For the compound `O=C1c2cc(Cl)ccc2-c2c(N3CCC4(CC3)OCCO4)nc3ccccc3c21` [SJ-22], the melting point lay in the range of 218 to 219 °C. Further, in the data set with human PC-3 cells, the “Toxicity (%)” value came out at 42.6% and the “GI % (10 μM)” value worked out at 100%.
In turn, `O=C1c2cc(Cl)ccc2-c2c(N3CCC(CCCC4CCNCC4)CC3)nc3ccccc3c21` [SJ-24, 9-Chloro-6-(4-(3-(piperidin-4-yl)propyl)piperidin-1-yl)-11H-indeno[1,2-c]quinolin-11-one] had a melting point of 149 to 151 °C. Further, the “solubility in DMSO” value in “Solubility in DMSO” is “poor”. Further, in the data set with human PC-3 cells, the “Toxicity (%)” value is given as 63.8% and the “GI % (10 μM)” value is 100%.
